Measurements from patent publication US4358441A, “Nicotinic derivatives of glucosamine and related pharmaceutical compositions” (Laboratorio Guidotti & C. S.p.A., priority 1980, dated 1982).

Columns and labels:
[1] = tested on: plasma levels of triglycerides; experiment: Effect of oral administration on plasma levels of triglycerides in the empty rat; assay type: in vivo, rat (COBS CD (SD) BR male); details: for Percent variations of plasma triglycerides with respect to the controls: empty rat; for Time within which the effect on triglycerides disappears: rat
[2] = tested on: plasma levels of cholesterol; experiment: Effect of oral administration on plasma levels of cholesterol in the empty rat; assay type: in vivo, rat (COBS CD (SD) BR male); details: for Percent variations of plasma cholesterol with respect to the controls: 100 mg/kg oral referred to nicotinic acid, empty rat
[3] = tested on: plasma levels of free glycerol; experiment: Effect of oral administration on plasma levels of free glycerol in the empty rat; assay type: in vivo, rat (COBS CD (SD) BR male); details: for Percent variations of plasma free glycerol with respect to the controls: empty rat
[4] = tested on: plasma levels of FFA; experiment: Effect of oral administration on plasma levels of FFA in the empty rat; details: for Percent variations of plasma FFA with respect to the controls: empty rat
[5] = 30 mg/kg oral referred to nicotinic acid, 1 h
[6] = 30 mg/kg oral referred to nicotinic acid, 2 h
[7] = 30 mg/kg oral referred to nicotinic acid, 4 h
[8] = 30 mg/kg oral referred to nicotinic acid, 6 h
[9] = 100 mg/kg oral referred to nicotinic acid, 2 h
[10] = 100 mg/kg oral referred to nicotinic acid, 4 h
[11] = 100 mg/kg oral referred to nicotinic acid, 6 h
[12] = 100 mg/kg oral referred to nicotinic acid, 8 h
[13] = 100 mg/kg oral referred to nicotinic acid, 10 h
[14] = 100 mg/kg oral referred to nicotinic acid, 16 h
[15] = 100 mg/kg oral referred to nicotinic acid, 24 h

## O=C(OCC(COC(=O)c1cccnc1)(COC(=O)c1cccnc1)COC(=O)c1cccnc1)c1cccnc1 [NICERITROLE, pentaerithritol-tetranicotinate]
[1]; [5]
  Percent variations of plasma triglycerides with respect to the controls: -45%
[1]; [6]
  Percent variations of plasma triglycerides with respect to the controls: -27%
[1]; [7]
  Percent variations of plasma triglycerides with respect to the controls: +13%
[1]; [8]
  Percent variations of plasma triglycerides with respect to the controls: -6%
[1]; 30 mg/kg oral
  Time within which the effect on triglycerides disappears: ≤ 2 h
[1]; [9]
  Percent variations of plasma triglycerides with respect to the controls: -41%
[1]; [10]
  Percent variations of plasma triglycerides with respect to the controls: -56%
[1]; [11]
  Percent variations of plasma triglycerides with respect to the controls: -63%
[1]; [12]
  Percent variations of plasma triglycerides with respect to the controls: -30%
[1]; [13]
  Percent variations of plasma triglycerides with respect to the controls: +9%
[1]; [14]
  Percent variations of plasma triglycerides with respect to the controls: -3%
[1]; [15]
  Percent variations of plasma triglycerides with respect to the controls: +5%
[1]; 100 mg/kg oral
  Time within which the effect on triglycerides disappears: within the eighth hour
[2]; 4 h
  Percent variations of plasma cholesterol with respect to the controls: -2%
[2]; 6 h
  Percent variations of plasma cholesterol with respect to the controls: -7%
[2]; 8 h
  Percent variations of plasma cholesterol with respect to the controls: 0%
[2]; 10 h
  Percent variations of plasma cholesterol with respect to the controls: -10%
[2]; 16 h
  Percent variations of plasma cholesterol with respect to the controls: -17%
[2]; 24 h
  Percent variations of plasma cholesterol with respect to the controls: -14%
[2]; 100 mg/kg oral, rat
  Lowering of cholesterolemy: never significant
[3]; [5]
  Percent variations of plasma free glycerol with respect to the controls: -77%
[3]; [6]
  Percent variations of plasma free glycerol with respect to the controls: -9%
[3]; [7]
  Percent variations of plasma free glycerol with respect to the controls: -4%
[3]; [8]
  Percent variations of plasma free glycerol with respect to the controls: +11%
[3]; 30 mg/kg oral, rat
  Activity on free glycerol: active only after 1 hour
[3]; [9]
  Percent variations of plasma free glycerol with respect to the controls: -61%
[3]; [10]
  Percent variations of plasma free glycerol with respect to the controls: -34%
[3]; [11]
  Percent variations of plasma free glycerol with respect to the controls: +17%
[3]; [12]
  Percent variations of plasma free glycerol with respect to the controls: +11%
[3]; [13]
  Percent variations of plasma free glycerol with respect to the controls: +4%
[3]; [14]
  Percent variations of plasma free glycerol with respect to the controls: +13%
[3]; [15]
  Percent variations of plasma free glycerol with respect to the controls: +3%
[3]; 100 mg/kg oral, rat
  Time within which the effect on free glycerol disappears: within the fourth hour
[4]; [5]
  Percent variations of plasma FFA with respect to the controls: -87%
[4]; [6]
  Percent variations of plasma FFA with respect to the controls: -18%
[4]; [7]
  Percent variations of plasma FFA with respect to the controls: +9%
[4]; [8]
  Percent variations of plasma FFA with respect to the controls: +8%
[4]; [9]
  Percent variations of plasma FFA with respect to the controls: -70%
[4]; [10]
  Percent variations of plasma FFA with respect to the controls: -43%
[4]; [11]
  Percent variations of plasma FFA with respect to the controls: +27%
[4]; [12]
  Percent variations of plasma FFA with respect to the controls: +10%
[4]; [13]
  Percent variations of plasma FFA with respect to the controls: -2%
[4]; [14]
  Percent variations of plasma FFA with respect to the controls: +6%
[4]; [15]
  Percent variations of plasma FFA with respect to the controls: -8%
[4]; 100 mg/kg oral, rat
  Time within which the effect on FFA disappears: ≤ 6 h
